Assay results as given in ChEMBL document CHEMBL3865844, “Synthesis of 3,5-dihydroxy-7,8-dimethoxy-2-(4-methoxyphenyl)benzopyran-4-one derivatives as anticancer agents” (Bioorg Med Chem Lett, 2016).
Calls of active or inactive are those of the source. The calls are words filed in the database; no cut-off is given here.

Columns and labels:
[1] = Anticancer activity against human ER-positive MCF7 cells measured after 48 hrs by SRB assay; type: functional, cell-based; conditions: MCF7, 48 h
[2] = Anticancer activity against human DLD1 cells measured after 48 hrs by SRB assay; type: functional, cell-based; conditions: DLD-1, 48 h
[3] = Anticancer activity against human A549 cells measured after 48 hrs by SRB assay; type: functional, cell-based; conditions: A549, 48 h
[4] = Anticancer activity against human DU145 cells measured after 48 hrs by SRB assay; type: functional, cell-based; conditions: DU-145, 48 h
[5] = Anticancer activity against human FADU cells measured after 48 hrs by SRB assay; type: functional, cell-based
[6] = Cytotoxicity against human THP1 cells by MTT assay; type: toxicity, cell-based, THP-1
[7] = Inhibition of tubulin depolymerization (unknown origin) measured up to 60 mins; parameters: species or system Homo sapiens
[8] = Cell cycle arrest in human ER-positive MCF7 cells assessed as accumulation at sub-G0 phase at 7.2 and 14.93 uM by propidium iodide staining based flow cytometry relative to vehicle control; type: functional; conditions: TDE = time-dependent effect
[9] = Cell cycle arrest in human ER-positive MCF7 cells assessed as accumulation at G2M phase at 7.2 and 14.93 uM by propidium iodide staining based flow cytometry relative to vehicle control; type: functional; conditions: TDE = time-dependent effect
[10] = Cell cycle arrest in human ER-positive MCF7 cells assessed as decrease in S-phase cell population at 7.2 and 14.93 uM after 24 hrs by propidium iodide staining based flow cytometry relative to vehicle control; type: functional
MCF7 = experiment: Induction of apoptosis in human ER-positive MCF7 cells assessed as PARP cleavage at 2.5 to 10 uM by Western blot analysis; type: functional, cell-based; conditions: TDE = time-dependent effect

SMILES	IC50 [1]	IC50 [2]	IC50 [3]	IC50 [4]	IC50 [5]	CC50 [6]	EC50 [7]	Activity [8]	Activity [9]	Activity [10]	Activity (MCF7)
COc1ccc(-c2oc3c(OC)c(OC)cc(OCCN(C)C)c3c(=O)c2O)cc1	12.9 µM	4.44 µM	7.17 µM	6.03 µM	10.9 µM	200 µM	–	–	–	–	–
CCCCN(C)C(=O)CCCOc1cc(OC)c(OC)c2oc(-c3ccc(OC)cc3)c(O)c(=O)c12	> 40 µM	> 40 µM	> 40 µM	> 40 µM	> 40 µM	–	3.4 µM	–	–	–	–
COc1ccc(-c2oc3c(OC)c(OC)cc(OCCCC(=O)NCCc4ccccn4)c3c(=O)c2O)cc1	> 40 µM	> 40 µM	> 40 µM	> 40 µM	> 40 µM	–	–	–	–	–	–
COc1ccc(-c2oc3c(OC)c(OC)cc(OCCCC(=O)NCc4ccccn4)c3c(=O)c2O)cc1	> 40 µM	> 40 µM	> 40 µM	> 40 µM	> 40 µM	–	–	–	–	–	–
COc1ccc(-c2oc3c(OC)c(OC)cc(OCCCCC(=O)N4CCN(C)CC4)c3c(=O)c2O)cc1	> 40 µM	> 40 µM	> 40 µM	> 40 µM	> 40 µM	–	–	–	–	–	–
CCCCN(C)C(=O)CCCCOc1cc(OC)c(OC)c2oc(-c3ccc(OC)cc3)c(O)c(=O)c12	22.3 µM	17.4 µM	16.7 µM	10.8 µM	22 µM	200 µM	–	–	–	–	–
CCN(CC)CCOc1cc(OC)c(OC)c2oc(-c3ccc(OC)cc3)c(O)c(=O)c12	25.1 µM	7.81 µM	13.8 µM	11.3 µM	12.8 µM	200 µM	–	–	–	–	–
COc1ccc(-c2oc3c(OC)c(OC)cc(OCCN4CCCC4)c3c(=O)c2O)cc1	14.9 µM	17.4 µM	11.1 µM	7.07 µM	9.79 µM	100 µM	–	–	–	–	–
COc1ccc(-c2oc3c(OC)c(OC)cc(OCCCC(=O)N4CCN(C)CC4)c3c(=O)c2O)cc1	> 40 µM	> 40 µM	> 40 µM	> 40 µM	> 40 µM	–	–	–	–	–	–
COc1ccc(-c2oc3c(OC)c(OC)cc(OCCN4CCCCC4)c3c(=O)c2O)cc1	11.9 µM	4.56 µM	10.3 µM	6.55 µM	9.96 µM	100 µM	–	–	–	–	–
COc1ccc(-c2oc3c(OC)c(OC)cc(OCCCCC(=O)NCCc4ccccn4)c3c(=O)c2O)cc1	> 40 µM	> 40 µM	> 40 µM	> 40 µM	> 40 µM	–	–	–	–	–	–
COc1ccc(-c2oc3c(OC)c(OC)cc(OC(C)CN(C)C)c3c(=O)c2O)cc1 (stereo unspecified)	7.2 µM	2.56 µM	6.12 µM	4.38 µM	5.41 µM	100 µM	25.1 µM	Tde	Tde	Active	Tde
COc1ccc(-c2oc3c(OC)c(OC)cc(OCCCCC(=O)NCc4ccccn4)c3c(=O)c2O)cc1	> 40 µM	> 40 µM	> 40 µM	> 40 µM	> 40 µM	–	–	–	–	–	–
CC/C(=C(\c1ccccc1)c1ccc(OCCN(C)C)cc1)c1ccccc1 [TAMOXIFEN]	18.2 µM	11.1 µM	17.3 µM	18.1 µM	5.39 µM	–	–	–	–	–	–
CCCCCN(C)C(=O)CCCCCOc1cc(OC)c(OC)c2oc(-c3ccc(OC)cc3)c(O)c(=O)c12	34.9 µM	19.4 µM	17.2 µM	22.5 µM	> 40 µM	200 µM	–	–	–	–	–
CC(=O)O[C@H]1C(=O)[C@@]2(C)[C@H]([C@H](OC(=O)c3ccccc3)[C@]3(O)C[C@H](OC(=O)[C@H](O)[C@@H](NC(=O)c4ccccc4)c4ccccc4)C(C)=C1C3(C)C)[C@]1(OC(C)=O)CO[C@@H]1C[C@@H]2O [PACLITAXEL]	–	–	–	–	–	–	0.97 µM	–	–	–	–
COc1ccc(-c2oc3c(OC)c(OC)cc(OCCCCCC(=O)NCc4ccccn4)c3c(=O)c2O)cc1	> 40 µM	> 40 µM	> 40 µM	> 40 µM	> 40 µM	–	–	–	–	–	–
COc1ccc(-c2oc3c(OC)c(OC)cc(OCCCCCC(=O)NCCc4ccccn4)c3c(=O)c2O)cc1	> 40 µM	> 40 µM	> 40 µM	> 40 µM	> 40 µM	–	–	–	–	–	–
COc1ccc(-c2oc3c(OC)c(OC)cc(OCCCCCC(=O)N4CCN(C)CC4)c3c(=O)c2O)cc1	14.1 µM	13.7 µM	14.8 µM	13.2 µM	15.8 µM	50 µM	5.25 µM	–	–	–	–
